Assay [1] deals with T1, RALH (resorcylic acid lactone hydrolase).
T1 construct: recombinant, codon-optimized, E. coli BL21(DE3); N-terminal His6-MBP tag removed with TEV protease; homologue alignment 303/316 residues (RALH vs ZenH); catalytic triad Ser117, Asp142, His292
As to the kind of experiment: LC-HRMS quantification of hydrolyzed product (HZEN), Michaelis-Menten fit. In kind it is biochemical, Aeromicrobium sp. LRDC-1. The note with it: 50 mM Tris-HCl pH 8.0, 1% BSA, 37 °C, 25 nM RALH, 20 min.

The target in another assay is T2, ScHsp82 (ScHSP82) (Saccharomyces cerevisiae, UniProt P02829).
T2 construct: gene HSP82; Ni-NTA and gel permeation
Put plainly: malachite green ATPase inhibition assay. In kind it is biochemical. The conditions noted are these: 1 mM ATP, 4% DMSO, 100 mM Tris-HCl pH 7.5, 20 mM KCl, 6 mM MgCl2, 37 °C, 3 h.

The test system of assay [2] is T1, RALH (resorcylic acid lactone hydrolase). As to the kind of experiment: LC-HRMS quantification of hydrolyzed product (HRAD), Michaelis-Menten fit. The conditions noted are these: 50 mM Tris-HCl pH 8.0, 1% BSA, 37 °C, 25 nM RALH, 5 min. In kind it is biochemical, Aeromicrobium sp. LRDC-1.

T2 sequence (P02829 whole entry): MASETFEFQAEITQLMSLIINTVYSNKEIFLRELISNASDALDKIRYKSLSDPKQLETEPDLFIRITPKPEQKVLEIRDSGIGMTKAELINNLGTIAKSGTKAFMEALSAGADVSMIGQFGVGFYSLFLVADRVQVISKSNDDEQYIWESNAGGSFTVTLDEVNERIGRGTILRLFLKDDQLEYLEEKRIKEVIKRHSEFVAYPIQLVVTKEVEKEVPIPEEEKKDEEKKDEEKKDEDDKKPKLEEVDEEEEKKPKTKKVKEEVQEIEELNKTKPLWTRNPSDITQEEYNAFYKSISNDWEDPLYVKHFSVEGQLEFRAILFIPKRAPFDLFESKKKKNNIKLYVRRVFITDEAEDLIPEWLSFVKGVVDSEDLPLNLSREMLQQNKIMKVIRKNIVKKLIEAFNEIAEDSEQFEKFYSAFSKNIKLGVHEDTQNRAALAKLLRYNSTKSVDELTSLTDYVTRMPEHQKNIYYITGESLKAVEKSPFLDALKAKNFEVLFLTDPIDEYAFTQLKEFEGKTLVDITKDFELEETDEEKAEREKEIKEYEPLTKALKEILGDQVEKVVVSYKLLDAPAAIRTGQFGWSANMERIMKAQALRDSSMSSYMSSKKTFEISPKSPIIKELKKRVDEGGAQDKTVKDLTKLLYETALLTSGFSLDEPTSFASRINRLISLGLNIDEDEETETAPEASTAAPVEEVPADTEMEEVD

In general, Km refers to the substrate concentration at which the rate is half of its maximum. Take `C[C@H]1CCCC(=O)CCC/C=C/c2cc(O)cc(O)c2C(=O)O1` [I, ZEN]: the Km in assay [1] turned out to be 24 µM. In addition, the “% decrease in ATPase activity at 50 μM” value on ScHsp82 (ScHSP82) was determined as 53%.

Turning to `C[C@@H]1C[C@H]2O[C@@H]2/C=C\C=C\C(=O)Cc2c(Cl)c(O)cc(O)c2C(=O)O1` [III, RAD], the Km in assay [2] was determined as 1200 µM.

For the origin of these results see PMC11435890, “Enzymatic Hydrolysis of Resorcylic Acid Lactones by an Aeromicrobium sp” (Toxins, 2024).
